# Where a name gives a salt, the structure may show the parent alone.
# Key:
# [1] = tested on: Rhabdomyosarcoma cell lines; design: method as in PMID 19887560, PMID 26269112; details: cited from earlier work
# [2] = tested on: recurrent or refractory pediatric CNS and solid tumors; assay: Tumor response assessment (RECIST; INRC for neuroblastoma); type: in vivo, human; design: key to Best Response: no response per INRC; PD: progressive disease per RECIST or INRC; SD: stable disease per RECIST; details: for Subjects with stable disease as best response: stable disease for 2 months
# Protocol: Tumor assessments were performed approximately every 8 weeks. For subjects with tumors other than neuroblastoma, responses were assessed by the study radiologist and principal investigator (SH, ID) via the Response Evaluation Criteria in Solid Tumors (RECIST). For subjects with neuroblastoma, responses were assessed by a single investigator (BK) using the International Neuroblastoma Response Criteria (INRC).
# [3] = design: method as in PMID 25740692; details: oral, adult non-tumor bearing rhesus monkeys, cerebrospinal fluid; cited from earlier work
# [4] = tested on: mouse brainstem glioma model; design: method as in PMID 25712742; details: doses demonstrated to be effective in cell culture; cited from earlier work
# mTOR pathway / autophagy = tested on: mTOR pathway / autophagy; design: method as in PMID 19920197; details: doses as low as; cited from earlier work
# [5] = cited from earlier work
structure (smiles),measurement,setting,value
"CCCCCCCCCCCCCCCCCCOP(=O)([O-])OC1CC[N+](C)(C)CC1 [perifosine, 1,1-Dimethyl-4-[[(octadecyloxy)hydroxyphosphinyl]oxy]-piperidinium inner salt]",IC50,[1],~10 µM
same,Objective responses,"[2]; 23 patients, all dose levels",No objective responses
same,Best Response,"[2]; Patient 1, dose level 1, medulloblastoma",PD
same,Best Response,"[2]; Patient 2, dose level 1, medulloblastoma",PD
same,Best Response,"[2]; Patient 3, dose level 1, neuroblastoma",NR
same,Duration of Best Response,"[2]; Patient 3, dose level 1, neuroblastoma, NR",11 months
same,Best Response,"[2]; Patient 4, dose level 2, glioblastoma",PD
same,Best Response,"[2]; Patient 5, dose level 2, neuroblastoma",NR
same,Duration of Best Response,"[2]; Patient 5, dose level 2, neuroblastoma, NR",63 months
same,Best Response,"[2]; Patient 6, dose level 2, anaplastic astrocytoma",SD
same,Duration of Best Response,"[2]; Patient 6, dose level 2, anaplastic astrocytoma, SD",2 months
same,Best Response,"[2]; Patient 7, dose level 3, glioblastoma",SD
same,Duration of Best Response,"[2]; Patient 7, dose level 3, glioblastoma, SD",2 months
same,Best Response,"[2]; Patient 8, dose level 3, anaplastic astrocytoma",SD
same,Duration of Best Response,"[2]; Patient 8, dose level 3, anaplastic astrocytoma, SD",2 months
same,Best Response,"[2]; Patient 9, dose level 3, anaplastic astrocytoma",SD
same,Duration of Best Response,"[2]; Patient 9, dose level 3, anaplastic astrocytoma, SD",2 months
same,Best Response,"[2]; Patient 10, dose level 3, ependymoma",PD
same,Best Response,"[2]; Patient 11, dose level 3, neuroblastoma",NR
same,Duration of Best Response,"[2]; Patient 11, dose level 3, neuroblastoma, NR",2 months
same,Best Response,"[2]; Patient 12, dose level 4, neuroblastoma",PD
same,Best Response,"[2]; Patient 13, dose level 4, Ewing sarcoma/PNET",PD
same,Best Response,"[2]; Patient 14, dose level 4, neuroblastoma",NR
same,Duration of Best Response,"[2]; Patient 14, dose level 4, neuroblastoma, NR",4 months
same,Best Response,"[2]; Patient 15, dose level 4, neuroblastoma",NR
same,Duration of Best Response,"[2]; Patient 15, dose level 4, neuroblastoma, NR",42 months
same,Best Response,"[2]; Patient 16, dose level 4, neuroblastoma",PD
same,Best Response,"[2]; Patient 17, dose level 4, DIPG",PD
same,Best Response,"[2]; Patient 18, dose level 5, Wilms tumor",PD
same,Best Response,"[2]; Patient 19, dose level 5, DIPG",PD
same,Best Response,"[2]; Patient 20, dose level 5, DIPG",SD
same,Duration of Best Response,"[2]; Patient 20, dose level 5, DIPG, SD",2 months
same,Best Response,"[2]; Patient 21, dose level 5, ependymoma",PD
same,Best Response,"[2]; Patient 22, dose level 5, ependymoma",PD
same,Best Response,"[2]; Patient 23, dose level 5, neuroblastoma",PD
same,Subjects with disease stability (no response per INRC),"[2]; neuroblastoma, for 2, 4, 11, 42 and 63 months",Five of 8
same,Subjects with stable disease as best response,[2]; recurrent high-grade astrocytoma,4 of 5
same,Duration of prolonged stable disease,[2]; three subjects with neuroblastoma,≥ 11 months
same,Subjects with stable disease as best response,[2]; three subjects with recurrent DIPG,1
same,CNS penetration,[3],limited
same,Acute toxicity after convection enhanced delivery,[4],no serious acute toxicities
same,Lowest dose degrading mTOR pathway components and inducing autophagy,mTOR pathway / autophagy,5 µM
same,Dose at which dose exposure plateau was reached,[5]; 2 adult studies,higher than 100 mg/m^2/day
same,Plasma half-life,[5],approximately 4 days
